Assay [1] has as its system HeLa. Nature of the assay: Cell cycle arrest in human HeLa cells assessed as effect on 4N stage incubated for 21 hrs by propidium iodide based flow cytometry. In kind it is functional.
The subject of assay [2] is GTPase KRas (Homo sapiens), P01116 [UNDEFINED MUTATION]. Nature of the assay: Inhibition of KRas mutant in human SW480 cells assessed as cell viability by measuring ATP at 20 uM relative to control. In kind it is cell-based.
The test system is the same in assay [3]. Nature of the assay: Inhibition of KRas mutant in human SW480 cells assessed as cell viability by measuring ATP at 2 uM relative to control. In kind it is cell-based.
For assay [4] the test system is unchanged. Nature of the assay: Inhibition of KRas mutant in human DLD1 cells assessed as cell viability by measuring ATP at 0.2 uM relative to control. The assay is classed as cell-based.
Assay [5] concerns HeLa. Nature of the assay: Cell cycle arrest in human HeLa cells assessed as effect on G1 phase incubated for 21 hrs by propidium iodide based flow cytometry. In kind it is functional.
The test system of assay [6] is GTPase KRas (Homo sapiens), P01116 [UNDEFINED MUTATION]. Nature of the assay: Inhibition of KRas mutant in human DLD1 cells assessed as cell viability by measuring ATP at 20 uM relative to control. In kind it is cell-based.
The target in assay [7] is T1, Angiopoietin-like protein 8 (Homo sapiens) (UniProt Q6UXH0).
T1 sequence (whole entry): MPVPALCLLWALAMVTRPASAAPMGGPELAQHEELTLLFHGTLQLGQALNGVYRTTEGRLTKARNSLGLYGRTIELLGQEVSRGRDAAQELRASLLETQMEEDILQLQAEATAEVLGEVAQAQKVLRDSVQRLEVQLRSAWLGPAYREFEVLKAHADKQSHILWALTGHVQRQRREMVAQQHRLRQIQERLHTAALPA
Nature of the assay: Inhibition of human Angptl8 at 40 uM relative to control.

The subject of assay [8] is HeLa. Nature of the assay: Cell cycle arrest in human HeLa cells incubated for 21 hrs by propidium iodide based flow cytometry. In kind it is functional.
The target of assay [9] is Proprotein convertase subtilisin/kexin type 9 (Homo sapiens) (UniProt Q8NBP7). Nature of the assay: Inhibition of human PCSK9 at 40 uM relative to control.
Assay [10] deals with Apolipoprotein C-III (Homo sapiens) (UniProt P02656). Nature of the assay: Inhibition of human APOC3 at 40 uM relative to control.
A short description of assay [11]: Activation of wnt pathway in mouse C2C12 cells assessed as increase in alkaline phosphatase activity. The assay is classed as cell-based.
Assay [12] deals with GTPase KRas (Homo sapiens), P01116 [UNDEFINED MUTATION]. Nature of the assay: Inhibition of KRas mutant in human HCT116 cells assessed as cell viability by measuring ATP at 2 uM relative to control. The assay is classed as cell-based.
The test system of assay [13] is HeLa. Nature of the assay: Cell cycle arrest in human HeLa cells assessed as effect on 2N stage incubated for 21 hrs by propidium iodide based flow cytometry. The assay is classed as functional.
Assay [14] is described as follows: Activation of wnt pathway in mouse C2C12 cells assessed as increase in beta-catenin activity. In kind it is cell-based.
Assay [15] concerns GTPase KRas (Homo sapiens), P01116 [UNDEFINED MUTATION]. Nature of the assay: Inhibition of KRas mutant in human HCT116 cells […] assessed as cell viability by measuring ATP at 20 uM relative to control. In kind it is cell-based.
Assay [16] has the same test system. Nature of the assay: Inhibition of KRas mutant in human HCT116 cells […] assessed as cell viability by measuring ATP at 2 uM relative to control. In kind it is cell-based.
Assay [17] has the same test system. Nature of the assay: Inhibition of KRas mutant in human HCT116 cells assessed as cell viability by measuring ATP at 20 uM relative to control. The assay is classed as cell-based.
Assay [18] concerns the target Microtubule-associated protein tau (Homo sapiens) (UniProt P10636). Nature of the assay: Inhibition of human Tau at 40 uM relative to control.
In assay [19] the test system is GTPase KRas (Homo sapiens), P01116 [UNDEFINED MUTATION]. Nature of the assay: Inhibition of KRas mutant in human DLD1 cells assessed as cell viability by measuring ATP at 2 uM relative to control. In kind it is cell-based.
Assay [20] relates to HeLa. Nature of the assay: Cell cycle arrest in human HeLa cells assessed as effect on S phase incubated for 21 hrs by propidium iodide based flow cytometry. In kind it is functional.
Assay [21] concerns HeLa. Nature of the assay: Cell cycle arrest in human HeLa cells assessed as effect on mitotic index incubated for 21 hrs by propidium iodide based flow cytometry. The assay is classed as functional.
In assay [22] the target is Sodium channel protein type 9 subunit alpha (Homo sapiens) (UniProt Q15858). Nature of the assay: Inhibition of human Nav1.7 at 40 uM relative to control.
For assay [23], the system named is GTPase KRas (Homo sapiens), P01116 [UNDEFINED MUTATION]. Nature of the assay: Inhibition of KRas mutant in human SW480 cells assessed as cell viability by measuring ATP at 0.2 uM relative to control. The assay is classed as cell-based.
Assay [24] shares this test system. Nature of the assay: Inhibition of KRas mutant in human HCT116 cells assessed as cell viability by measuring ATP at 0.2 uM relative to control. The assay is classed as cell-based.
Assay [25] has the same test system. Nature of the assay: Inhibition of KRas mutant in human HCT116 cells […] assessed as cell viability by measuring ATP at 0.2 uM relative to control. In kind it is cell-based.
For assay [26] the test system is unchanged. Nature of the assay: Inhibition of KRas mutant in human DLD1 cells assessed as cell viability by measuring ATP. In kind it is cell-based.
For assay [27] the test system is unchanged. Nature of the assay: Inhibition of KRas mutant in human HCT116 cells assessed as cell viability by measuring ATP. The assay is classed as cell-based.
The test system is the same in assay [28]. Nature of the assay: Inhibition of KRas mutant in human SW480 cells assessed as cell viability by measuring ATP. In kind it is cell-based.
For assay [29] the test system is unchanged. Nature of the assay: Inhibition of KRas mutant in human HCT116 cells […] assessed as cell viability by measuring ATP. In kind it is cell-based.

Some results are limits rather than exact numbers.

Sequence of Microtubule-associated protein tau (Homo sapiens) (P10636 whole entry): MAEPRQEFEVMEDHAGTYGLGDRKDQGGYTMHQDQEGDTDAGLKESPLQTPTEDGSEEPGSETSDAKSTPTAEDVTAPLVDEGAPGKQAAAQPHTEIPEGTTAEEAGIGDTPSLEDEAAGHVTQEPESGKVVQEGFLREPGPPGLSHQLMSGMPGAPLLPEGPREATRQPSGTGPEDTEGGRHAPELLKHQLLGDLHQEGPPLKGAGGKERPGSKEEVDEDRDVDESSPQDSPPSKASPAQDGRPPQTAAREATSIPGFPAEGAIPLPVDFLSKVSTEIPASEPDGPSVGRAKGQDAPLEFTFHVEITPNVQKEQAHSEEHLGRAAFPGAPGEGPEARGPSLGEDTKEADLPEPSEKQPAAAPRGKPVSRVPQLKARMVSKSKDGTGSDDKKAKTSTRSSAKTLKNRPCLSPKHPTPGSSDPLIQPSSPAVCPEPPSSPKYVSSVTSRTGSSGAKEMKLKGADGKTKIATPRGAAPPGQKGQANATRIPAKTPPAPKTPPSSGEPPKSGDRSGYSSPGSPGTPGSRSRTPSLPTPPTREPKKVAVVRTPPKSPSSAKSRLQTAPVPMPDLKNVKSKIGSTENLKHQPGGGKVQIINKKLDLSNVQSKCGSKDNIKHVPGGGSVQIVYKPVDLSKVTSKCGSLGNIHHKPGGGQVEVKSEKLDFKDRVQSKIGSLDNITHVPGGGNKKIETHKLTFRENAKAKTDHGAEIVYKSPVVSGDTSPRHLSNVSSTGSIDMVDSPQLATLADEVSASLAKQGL
Sequence of Proprotein convertase subtilisin/kexin type 9 (Homo sapiens) (Q8NBP7 31-152 limits assumed): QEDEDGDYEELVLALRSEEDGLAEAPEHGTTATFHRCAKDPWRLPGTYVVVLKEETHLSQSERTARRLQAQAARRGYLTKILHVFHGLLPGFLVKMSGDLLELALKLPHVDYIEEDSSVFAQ
Sequence of Proprotein convertase subtilisin/kexin type 9 (Homo sapiens) (Q8NBP7 153-692 limits assumed): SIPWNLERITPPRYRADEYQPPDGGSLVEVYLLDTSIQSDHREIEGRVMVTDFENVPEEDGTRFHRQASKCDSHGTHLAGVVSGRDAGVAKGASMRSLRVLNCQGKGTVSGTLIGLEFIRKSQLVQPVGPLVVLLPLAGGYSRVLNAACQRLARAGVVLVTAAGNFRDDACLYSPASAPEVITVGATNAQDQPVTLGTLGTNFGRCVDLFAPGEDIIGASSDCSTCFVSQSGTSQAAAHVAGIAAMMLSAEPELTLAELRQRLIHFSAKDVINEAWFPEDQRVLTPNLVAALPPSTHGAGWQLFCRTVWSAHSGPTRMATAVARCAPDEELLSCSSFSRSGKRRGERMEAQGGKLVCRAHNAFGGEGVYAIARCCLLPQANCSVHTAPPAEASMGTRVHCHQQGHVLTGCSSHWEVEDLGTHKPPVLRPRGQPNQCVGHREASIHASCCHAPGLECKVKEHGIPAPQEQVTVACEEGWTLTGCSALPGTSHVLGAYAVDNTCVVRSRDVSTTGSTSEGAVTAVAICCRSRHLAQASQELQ
Sequence of Sodium channel protein type 9 subunit alpha (Homo sapiens) (Q15858 whole entry, looked up): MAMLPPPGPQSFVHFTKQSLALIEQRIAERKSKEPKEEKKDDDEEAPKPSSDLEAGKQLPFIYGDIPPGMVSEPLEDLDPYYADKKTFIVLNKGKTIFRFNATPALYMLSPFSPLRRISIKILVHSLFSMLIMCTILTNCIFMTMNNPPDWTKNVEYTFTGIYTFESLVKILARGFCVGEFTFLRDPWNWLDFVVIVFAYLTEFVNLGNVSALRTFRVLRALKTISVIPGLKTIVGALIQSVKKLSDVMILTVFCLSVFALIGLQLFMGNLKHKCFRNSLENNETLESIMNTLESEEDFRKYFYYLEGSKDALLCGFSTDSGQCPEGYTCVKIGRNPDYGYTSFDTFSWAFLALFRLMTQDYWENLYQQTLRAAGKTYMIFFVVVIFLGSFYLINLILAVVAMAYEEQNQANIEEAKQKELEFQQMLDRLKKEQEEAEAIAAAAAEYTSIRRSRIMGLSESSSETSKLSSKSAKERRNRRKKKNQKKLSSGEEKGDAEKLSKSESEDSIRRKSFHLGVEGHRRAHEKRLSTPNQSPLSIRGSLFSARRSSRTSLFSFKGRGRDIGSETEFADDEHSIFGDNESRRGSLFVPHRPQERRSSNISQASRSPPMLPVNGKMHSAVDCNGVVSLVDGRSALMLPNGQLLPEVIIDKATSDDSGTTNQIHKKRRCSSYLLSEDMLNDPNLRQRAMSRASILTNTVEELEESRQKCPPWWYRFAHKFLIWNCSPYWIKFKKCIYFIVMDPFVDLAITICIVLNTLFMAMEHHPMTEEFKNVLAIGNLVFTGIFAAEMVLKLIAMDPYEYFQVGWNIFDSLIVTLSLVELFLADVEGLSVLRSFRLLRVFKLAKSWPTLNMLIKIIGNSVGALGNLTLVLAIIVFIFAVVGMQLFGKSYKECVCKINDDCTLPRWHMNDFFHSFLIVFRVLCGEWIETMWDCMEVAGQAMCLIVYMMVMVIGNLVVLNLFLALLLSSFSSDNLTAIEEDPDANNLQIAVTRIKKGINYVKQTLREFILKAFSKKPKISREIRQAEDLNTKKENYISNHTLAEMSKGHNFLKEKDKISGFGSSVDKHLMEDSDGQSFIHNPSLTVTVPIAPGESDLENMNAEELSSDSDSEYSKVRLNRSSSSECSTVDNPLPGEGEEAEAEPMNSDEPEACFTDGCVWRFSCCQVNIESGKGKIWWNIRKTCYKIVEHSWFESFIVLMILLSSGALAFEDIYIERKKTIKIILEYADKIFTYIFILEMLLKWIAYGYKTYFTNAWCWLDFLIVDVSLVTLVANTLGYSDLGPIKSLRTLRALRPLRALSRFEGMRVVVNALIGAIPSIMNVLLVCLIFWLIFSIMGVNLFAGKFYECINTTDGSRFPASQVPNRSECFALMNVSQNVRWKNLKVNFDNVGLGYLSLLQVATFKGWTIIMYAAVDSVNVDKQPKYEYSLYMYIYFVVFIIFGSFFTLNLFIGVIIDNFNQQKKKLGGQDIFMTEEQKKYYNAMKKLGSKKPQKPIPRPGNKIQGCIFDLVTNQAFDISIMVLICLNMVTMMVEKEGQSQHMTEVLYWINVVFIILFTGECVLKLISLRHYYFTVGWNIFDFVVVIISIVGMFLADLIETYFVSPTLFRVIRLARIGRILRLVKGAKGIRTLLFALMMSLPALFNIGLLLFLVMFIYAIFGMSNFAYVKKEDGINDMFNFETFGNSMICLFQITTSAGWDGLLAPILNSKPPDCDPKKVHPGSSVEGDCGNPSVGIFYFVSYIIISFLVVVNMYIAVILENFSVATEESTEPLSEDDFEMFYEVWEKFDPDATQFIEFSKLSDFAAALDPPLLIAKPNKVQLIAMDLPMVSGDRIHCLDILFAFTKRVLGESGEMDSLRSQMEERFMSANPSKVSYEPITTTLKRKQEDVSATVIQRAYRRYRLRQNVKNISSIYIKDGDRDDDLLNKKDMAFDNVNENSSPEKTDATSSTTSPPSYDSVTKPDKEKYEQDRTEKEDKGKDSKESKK
Sequence of GTPase KRas (Homo sapiens), P01116 [UNDEFINED MUTATION] (P01116 whole entry, looked up, change not shown): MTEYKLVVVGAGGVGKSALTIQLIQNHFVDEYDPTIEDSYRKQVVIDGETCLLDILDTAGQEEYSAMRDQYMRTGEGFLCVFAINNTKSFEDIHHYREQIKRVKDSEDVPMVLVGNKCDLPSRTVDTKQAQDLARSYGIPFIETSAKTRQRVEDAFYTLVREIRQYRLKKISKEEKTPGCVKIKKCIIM
Sequence of Apolipoprotein C-III (Homo sapiens) (P02656 whole entry): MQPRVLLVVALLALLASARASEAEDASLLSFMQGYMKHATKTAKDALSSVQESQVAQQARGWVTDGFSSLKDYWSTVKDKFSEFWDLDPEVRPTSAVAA

As to `CCCCCCc1c2c(c(C)c3c1C(=O)SC3)Oc1ccccc1O2`, the EC50 (in the assay with HeLa [1]; in the assay on HeLa [5]; in assay [11]; in assay [14]; in the assay on HeLa [21]) was greater than 10 µM throughout. The inhibition is 22% in assay [2]; 9% in assay [3]; -9% in assay [4]; 90% in [6]; 31% in assay [7]; 30% in [9]. Besides, the inhibition in [10] is 21%; in [12], 10%; in assay [15], 18%; in [16], -4%; in [17], 40%; in [18], 20%. Further, the inhibition in assay [19] was 7%; in [22], -10%; in assay [23], 13%. Further, the concentration for half-maximal inhibition (IC50) in the assay on HeLa [8], with HeLa [13] and with HeLa [20] was greater than 10 µM in each case.

For the molecule `CCCCc1c2c(c(C)c3c1Oc1ccccc1O3)C(=O)OC2`, the inhibition worked out at 14% in [2]; 14% in assay [3]; 41% in [6]; 15% in assay [7]; 15% in assay [9]; 34% in [10]. The inhibition in [12] was determined as 7%; in assay [15] it was 2%; in assay [24] it was 39%; in assay [16] it was 0.4%; in [17], 38%; in assay [18], 8%. In addition, the inhibition stood at 6% in assay [19] and 12% in assay [23].

Turning to `Cc1c2c(c(CCCCBr)c3c1C(=O)OC3)Oc1ccccc1O2`, the inhibition amounted to 55% in assay [2]; 4.4% in assay [3]; 0.4% in assay [4]; 20% in assay [6]; 37% in [7]; 40% in [9]. Further, the inhibition amounted to 17% in assay [10]; 9.5% in [12]; 28% in [15]; 2% in assay [24]; 20% in [16]; 108% in [17]. Further, the values for the inhibition in assay [18], in assay [19] and in [25] were 35%, 0.4% and 12%, respectively.

`CCCCCCc1c2c(c(C)c3c1Oc1ccccc1O3)C(=O)SC2`: the inhibition in assay [2] was 21%; in assay [3], 10%; in [4], -10%; in assay [6], 14%; in [7], 27%; in assay [9], -4%. The inhibition in [10] is 7%; in [12], 2.9%; in [15] it was 3.4%; in assay [24], -10%; in assay [16], -5.6%; in assay [17], 13%. Also, the inhibition in assay [18] is 30%; in [19] it was 6%; in [22], -2%; in [23] it was 10%.

In the case of `CCCCCc1c2c(c(C)c3c1C(=O)OC3)Oc1ccc(OC)cc1O2`, the concentration giving a half-maximal response (EC50) (in the assay on HeLa [1]; in the assay on HeLa [5]; in assay [11]; in [14]; with HeLa [21]) was greater than 10 µM each time. Moreover, the inhibition in [2] came out at 19%; in [3], 16%; in assay [6], 73%; in [7], 59%; in [9], 42%; in assay [10], 38%. The inhibition in assay [12] worked out at 7.9%; in assay [15] it was 6%; in assay [16], 8%; in [17], 40%; in assay [18], 60%; in assay [19] it was 16%. Also, the inhibition in [25] worked out at 52%; in assay [22], 22%; in assay [23], 15%. The IC50 in the assay with HeLa [13] and in the assay on HeLa [20] was greater than 10 µM throughout.

For the molecule `CCCCCCc1c2c(c(C)c3c1Oc1ccccc1O3)C(=O)OC2`, the inhibition is 12% in assay [2]; 18% in assay [3]; 29% in [4]; 24% in assay [7]; -7% in assay [9]; 17% in assay [10]. For the same molecule, the inhibition is 7% in assay [12]; 2% in assay [15]; -3% in assay [24]; 10% in [16]; 15% in [17]; 11% in [18]. In addition, the inhibition in assay [19] is 49%; in assay [25] it was 26%; in [22], -9%; in [23], 16%.

On to `CCCCCc1c2c(c(C)c3c1Oc1cc(OC)ccc1O3)C(=O)OC2`, for which the EC50 (with HeLa [1]; with HeLa [5]; in assay [11]; in assay [14]; in the assay with HeLa [21]) was greater than 10 µM each time. Also, the inhibition in assay [6] is -3.9%; in assay [7], 34%; in assay [9] it was -7%; in [10] it was 12%; in [17] it was 26%; in [18], 23%. The IC50 in the assay on HeLa [13] and in the assay with HeLa [20] was greater than 10 µM in each case.

`CCCCCc1c2c(c(C)c3c1C(=O)OC3)Oc1ccccc1O2`: the EC50 with HeLa [1] is 1.6 µM; with HeLa [5], greater than 10 µM; in assay [11], 6.3 µM; in the assay with HeLa [21] it was 1.4 µM. For the same molecule, the inhibition entry in assay [26] was “Dose-dependent effect”; in assay [2], 86%; in [3] it was 64%; in [4], 60%; in assay [27], “Dose-dependent effect”; in [6] it was 120%. Moreover, the inhibition in [7] is 89%; in assay [28] it was “Dose-dependent effect”; in [9], 69%; in [10] it was 78%; in assay [12], 62%; in assay [15], 66%. Also, the inhibition in assay [24] is 20%; in assay [16] it was 59%; in assay [17] it was 89%; in assay [18], 88%; in [19] it was 63%; in assay [25] it was 5%. For the same molecule, the inhibition was 74% in [22], “Dose-dependent effect” in assay [29] and 20% in [23]. The IC50 was 1 µM in the assay on HeLa [8], 1.8 µM in the assay on HeLa [13] and greater than 10 µM with HeLa [20].

In the case of `CCCCCc1c2c(c(C)c3c1Oc1ccccc1O3)C(=O)OC2`, the inhibition in assay [2] was 40%; in [3] it was 21%; in [6], 40%; in assay [12], 12%; in assay [15] it was 31%; in assay [24] it was -9%. Further, the inhibition in assay [16] came out at 28%; in assay [17], 35%; in [19], 17%; in [25] it was 44%; in [23], 11%.
